Data: US20260240817A1, “COMPOSITIONS AND METHODS FOR TREATING CHARCOT-MARIE-TOOTH DISEASE” (priority 2023, published 2026)
“Also recorded” adds a separate entry of the source.

Tests used:
[1] = test system: healthy volunteers; assay: Phase I (FIH) clinical trial, safety and tolerability in healthy volunteers; type: in vivo, human
From the text: Part A1 tested single doses of NMD670 in a double-blind, randomised, placebo-controlled, partial crossover and dose-escalating design in healthy male subjects (see the WHO International Clinicals Trials Registry Platform study reference NL8692). A total of nine dose levels were investigated in three cohorts of subjects. Each cohort consisted of nine subjects, each subject had three study sessions. Each subject received escalating doses of NMD670 on two occasions and placebo on one occasion, the order will be randomized in a cross-over fashion. Each dose level was randomized in a 6:3 ratio (active vs. placebo). See Table 10 for an overview of the randomization scheme.
Due to this temporary halt and partial unblinding of the study during dose level 7, a new randomization was necessary. After unblinding three subjects in dose level 7, the original randomization for dose 8 and 9 was changed in order to keep the study blinded. […] Therefore, for the remaining 2 doses, a full cross-over design investigating one previously tested dose level was used. The 9 subjects in cohort 3 were randomized to receive the study drug in level 8 and placebo in level 9, or vice versa. To determine the effect of food on the exposure of single oral doses of NMD670, dose level 5 was administered in both the fasted and fed condition. Subjects who received dose level 5 returned for a fourth visit in which they received dose level 5 (or matching placebo) in the fed condition, in the same randomization as the chosen dose level in the fasted condition.
Part A2 of the study investigated the safety, tolerability and pharmacokinetics of NMD670 in 8 healthy female subjects of non-childbearing potential, in a randomized, double-blind, placebo-controlled single dose administration of NMD670. Subjects received 800 mg NMD670. Subjects were randomized in a 6:2 ratio (active vs. placebo).
The following endpoints were determined at time points indicated in the Schedule of Assessments. • Serious adverse events (SAEs) and adverse events (AEs) were collected throughout the study at every study visit. • Concomitant medication • Clinical laboratory tests • Haematology • Chemistry • Urinalysis • Coagulation • Vital signs • Pulse Rate (bpm) • Systolic blood pressure (mmHg) • Diastolic blood pressure (mmHg) • Respiratory rate • ECG • Heart Rate (HR) (bpm), PR, QRS, QT, QTcF • 24-hour Holter recording • Hand grip dynamometry • Grip release profile; time profile from 100% maximum voluntary contraction (MVC) to 5% of the 100% MVC
NMD670 has been tested in a Phase 1, FIH, single ascending and multiple ascending dose study in healthy volunteers. […] In addition, the Phase 1 FIH study also tested single doses of 400 mg and 1200 mg in 12 MG patients.

[2] = test system: soleus muscle fibres from CMT2D mice; assay: Intracellular recordings of action potentials during repeated motor nerve stimulation, isolated soleus nerve-muscle preparations; type: cell-based, mouse
[3] = test system: WT mice; assay: In situ force and CMAP of triceps surae on sciatic nerve stimulation, wild type; type: in vivo, mouse
From the text: Mice were removed from their housing on the day of experiment and sedated with isoflurane (2-3%) dissolved in oxygen (supplied in a mask placed around the mouth and nose (Microvent 1, Hallowell EMC)) and placed on a heated mat. Sedation was ensured by testing the reflexes of the front limbs by tweezing them with a set of tweezers. Temperature was monitored by rectal probe. When fully sedated the Achilles tendon was blotted, tied by cotton string to a force transducer (Grass instruments) and cut distal to the cotton string, to allow recording of force from muscle of the lower limb. To record compound muscle action potentials (CMAP), two small needle electrodes were placed subcutaneously, one over the belly of the triceps surae muscle, and one at the distal part close to the tendon. To allow stimulation of the sciatic nerve, two stimulation needle electrodes were inserted at the base of the tail, one on each side of the sciatic nerve. Optimal placement was tested by applying short pulses via the stimulation electrodes, and assessing the resulting force and CMAP. When a stable response was obtained, electrodes were secured with tape, and the animal was allowed to rest for 10 minutes.
After optimal set-up and rest, the following stimulation paradigm was initiated: Every 30 seconds the sciatic nerve was stimulated at 8-12 Volt by pulses of 0.1 ms duration at 12 Hz with 10 pulses (12 Hz protocol). This was repeated 9 times after which a single stimulation at 120 Hz for 1 s was made. The 12 Hz protocol was then again repeated 9 times followed a stimulation at 30 Hz for 1 s. This cycle was repeated throughout the experiments providing recordings of force and CMAP at 120 Hz and 30 Hz every 10th minute interspaced by 12 Hz protocols every 30 second. When 3 consecutive measurements of 120 Hz were similar, NMD670 was administered I.V. (8 mg/kg dissolved in phosphate buffered saline at 2 mg/mL), while the stimulation paradigm continued. Animals were monitored for 6 hours after injection of NMD670. Force and CMAP were measured and digitalized by an AD converter (CED, UK,) and analysed in “Signal 6” (Cambridge Electronic Designs, UK). When analysing force traces, the peak amplitude of each twitch peak at 12 and 30 Hz was measured, and the baseline subtracted. The force at 30 and 120 Hz was also quantified as a force-time integral, or area under the curve (AUC). The CMAP recordings were quantified as the peak-to-peak levels for each CMAP in every train. The peak heights or CMAP levels were then expressed as ratios relative to the first CMAP peak in the train e.g. forth peak relative to 1st peak (T4/T1) and 10th peak relative to 1st peak (T10/T1).

[4] = Wild Type, after NMD670 (before 100)

C[C@H](Oc1ccc(Br)cc1-c1ccon1)C(=O)O [NMD670, (2S)-2-[4-bromo-2-(1,2-oxazol-3-yl)phenoxy]propanoic acid]
tolerability of maximum repeated dose ([1]; 400 mg BID, healthy volunteers): well tolerated
healthy subjects with myotonic symptoms ([1]; 1200 mg once a day, mild in intensity, resolved spontaneously within a few hours): 2
adverse event of myotonia, intensity ([1]; 1600 mg single dose, one healthy subject, spontaneously and fully resolved within hours): moderate in intensity; also recorded: moderate severity
serious or severe adverse effects ([1]; Phase 1, healthy subjects, single doses 50 to 1600 mg): No serious or severe adverse effects; also recorded: No serious adverse reactions
overall safety and tolerability ([1]; Phase 1 FIH study, TEAE incidence similar between NMD670 and placebo): safe and well tolerated
subject discontinuations ([1]; Phase 1 Part A): no subject discontinuations
total AEs reported ([1]; Phase 1 Part A, 35 subjects): 70
AEs at least possibly drug related ([1]; Phase 1 Part A, of 70 AEs, number (%)): 47 (67%)
serum uric acid ([1]; Phase 1 clinical study, not considered clinically significant): dose-dependent decrease
transient myotonia, relation to dose ([1]; single doses, 1200 mg and 1600 mg): reported at the highest dose levels tested
fibres unable to sustain action potential generation for the entire stimulus train ([2]; 12 Hz, after 10 μM NMD670, 3/47 fibres (before 6/60, 10%)): 6,4%
average action potential excitation failure ([2]; 12 Hz, after addition of 10 μM NMD670 (before 3.6)): 1.9%
fibres unable to sustain action potential generation for the entire stimulus train ([2]; 30 Hz, after 10 μM NMD670, 3/47 fibres (before 9/60, 15%)): 6.4%
average action potential excitation failure ([2]; 30 Hz, after addition of 10 μM NMD670 (before 4.9)): 0.8%
fibres unable to sustain action potential generation for the entire stimulus train ([2]; 80 Hz, after 10 μM NMD670, 20/47 fibres (before 33/60, 55%)): 42.5%
average action potential excitation failure ([2]; 80 Hz, after addition of 10 μM NMD670 (before 29.6)): 20.4%
increase of ratio of the 5th and 1st CMAP peaks ([3]; WT mice after injection of NMD670, 30 and 80 Hz stimulations as printed): not significantly different
Twitch force relative to BW ([3]; Wild Type, after NMD670 (before 1.08 ± 0.01)): 1.06 ± 0.02
Twitch force ([3]; Wild Type, after NMD670 (before 21.6 ± 1.3)): 22.2 ± 2.3 g
Force 12 Hz Ratios T4/T1 ([3]; Wild Type, after NMD670 (before 96.6 ± 1.3)): 97.7 ± 06%
Force 12 Hz Ratios T10/T1 ([3]; Wild Type, after NMD670 (before 97.3 ± 0.6)): 99.2 ± 0.3%
Force 30 Hz AUC (% of initial) [3, 4]: 102.9 ± 1.9 % of initial
Force 120 Hz AUC (% of initial) [3, 4]: 100.7 ± 2.7 % of initial
12 Hz Ratios CMAP T4/T1 ([3]; Wild Type, after NMD670 (before 102.2 ± 0.9)): 103.1 ± 0.2
12 Hz Ratios CMAP T10/T1 ([3]; Wild Type, after NMD670 (before 102.8 ± 0.1)): 102.8 ± 2.2
EMG (CMAP) 30 Hz 5/1 ([3]; Wild Type, after NMD670 (before 105.8 ± 3.1)): 119.0 ± 11.6
EMG (CMAP) 120 Hz 5/1 ([3]; Wild Type, after NMD670 (before 110.2 ± 6.5)): 123.5 ± 20.6
